Series [1] has as its system wheat powdery mildew. As to the kind of experiment: In vivo test on wheat-powdery mildew (host-parasite). The method, then:
In vivo tests are carried out on wheat-powdery mildew (host-parasite) by using a combination of phenarimol [2,4'-dichloro-α--(pyrimidine-5-yl)-diphenyl-ethanol] and β-cyclodextrin. The tests are carried out in three replicates in phytotrone under usual experimental system and environmental conditions (20° C., humidity 90%, light intensity 9000 lux.) In culturing dishes (diameter 11 cm) as average 160 plants (5-6 cm stage) are treated with 8 ml of stable aqueous suspensions comprising the test material. The inhibition activity is calculated on the basis of the Hinfner-Papp formula by using the infectedness index.

For series [2] the following is noted: cited from earlier work; for volatility of the active ingredient: on forming complexes with cyclodextrin.
For series [3] the following is noted: cited from earlier work; for duration of pesticide activity: on forming complexes with cyclodextrin.
The conditions of series [4]: cited from earlier work.
Series [5] has as its system test fungi. The series is described as follows: Fungicidal activity of metomeclan with cyclodextrin, general statement. It counts as cell-based. The method, then: The following tests substantiate the surprising synergism between known fungicides and β-cyclodextrin. Stable, highly dispersed aqueous suspensions of the test materials are added to agar nutrient media in the desired concentration (0.1-200 μg/ml), whereupon the nutrient media are poured into Petri-dishes. Mycelium discs are cut out from the surfacial cultures of the test fungi and the discs are placed into the Petri-dishes containing the test materials. Incubation is carried out in thermostate whereupon the increase of the diameter of the colonies is measured and compared to that of the control. The tests are carried out in three replicates.

Series [6] in a line: Solubility of benomyl from various materials incl. Fundazol under the effect of β-cyclodextrin. It is filed as physicochemical. As for the experimental part: Benomyl is put on the market under the commercial name Fundazol 50 WP; benomyl active ingredient content: 50%. In Table 3 the solubility data of benomyl, a mixture of benomyl and cyclodextrin, Fundazol 50 WP, and a mixture of Fundazol 50 WP and cyclodextrin are shown. In each experiment […] of the test substance are weighed in and shaken at 25° C. Benomyl is a 100% active ingredient; the benomyl content of the benomyl/cyclodextrin mixture amounts to 17.3%; the benomyl content of Fundazol 50 WP is 50%; the benomyl content of the mixture of Fundazol 50 WP and cyclodextrin amounts to 8.65%.
2000 μg/ml of solid material are weighed in which corresponds to the following amounts of benomyl:
in the case of benomyl: 2000 μg/ml
in the case of benomyl+β-CD: 350 μg/ml++1650 μg β-CD
in the case of Fundazol 50 WP: 1000 μg/ml
in the case of Fundazol 50 WP+β-CD: 175 μg/ml++1650 μg β-CD.

A short description of series [7]: Solubility of benomyl under the effect of β-cyclodextrin (shaking in water, UV). It counts as physicochemical. As to conditions: water 25° C.; for solubility thermodynamic at 10 min / solubility thermodynamic at 20 min / solubility thermodynamic at 40 min / solubility thermodynamic at 80 min / solubility thermodynamic at 2 h: water, read-out: Amount of dissolved benomyl. The method, then:
(Benomyl and benomyl+β-cyclodextrin, respectively, are shaken in water at 25° C., the samples are filtered and the dissolved benomyl contents of the filtrates are determined by UV spectrophotometry).

Setting [8] is: 10 minutes, weighed in 1000 μg/ml benomyl, or 170 μg benomyl + 830 μg/ml β-CD.
Where [9] appears, read: 10 minutes, weighed in 5000 μg/ml benomyl, or 850 μg benomyl + 4150 μg/ml β-CD.
The mark [10] stands for this setting: 20 minutes, weighed in 1000 μg/ml benomyl, or 170 μg benomyl + 830 μg/ml β-CD.
Setting [11] is: 20 minutes, weighed in 5000 μg/ml benomyl, or 850 μg benomyl + 4150 μg/ml β-CD.
The mark [12] stands for this setting: 40 minutes, weighed in 1000 μg/ml benomyl, or 170 μg benomyl + 830 μg/ml β-CD.
[13] abbreviates: 40 minutes, weighed in 5000 μg/ml benomyl, or 850 μg benomyl + 4150 μg/ml β-CD.
[14] abbreviates: 80 minutes, weighed in 1000 μg/ml benomyl, or 170 μg benomyl + 830 μg/ml β-CD.
The mark [15] stands for this setting: 80 minutes, weighed in 5000 μg/ml benomyl, or 850 μg benomyl + 4150 μg/ml β-CD.
Setting [16] is: 120 minutes, weighed in 1000 μg/ml benomyl, or 170 μg benomyl + 830 μg/ml β-CD.
[17] abbreviates: 120 minutes, weighed in 5000 μg/ml benomyl, or 850 μg benomyl + 4150 μg/ml β-CD.

This is an account of results in US4923853A, “Process for enhancing the activity of plant protecting agents by using cyclodextrin” (Chinoin Gyogyszer Es Vegyeszeti Termekek Gyara R.T., priority 1985, dated 1990).

The structures appear in SMILES notation. ≈ marks a conversion by molar mass, not a printed value.

On to `OC(c1ccc(Cl)cc1)(c1cncnc1)c1ccccc1Cl` (stereo not drawn) [Phenarimol, 2,4'-dichloro-α-(pyrimidine-5-yl)--diphenyl-methanol], for which the Inhibition activity % in series [1] (phenarimol concentration 0.625 μg/ml) was 29.4%; in series [1] (phenarimol concentration 1.25 μg/ml), 73.5%; in series [1] (phenarimol concentration 2.5 μg/ml), 87.2%; in series [1] (phenarimol concentration 5 μg/ml), 99.4%; in series [1] (phenarimol concentration 10 μg/ml), 100.0%.
Take `COP(=O)(OC)OC=C(Cl)Cl` [dichlorphos, 2,2--dichlorovinyl-dimethyl-phosphate]: the “volatility of the active ingredient” value in series [2] is given as “significantly decreased”. Moreover, in series [3], the “duration of pesticide activity” value is “remains sufficient for a longer period of time”.
As to `CCSC(=O)N1CCCCCC1` [molinate, S-ethyl-N,N-hexamethylene-thiocarbamate], the “volatility of the active ingredient” value in series [2] is “significantly decreased”. Moreover, the “duration of pesticide activity” value in series [3] was “remains sufficient for a longer period of time”.
For the molecule `N#Cc1c(Cl)cccc1Cl` [dichlobenyl, 2,6-dichloro-benzonitrile], in series [2] (uncomplexed, inhibited by forming complex with cyclodextrin), the sublimation result is on record as “easily sublimates”.
In the case of `COCC1CC(=O)N(c2cc(Cl)cc(Cl)c2)C1=O` (stereo not shown) [Metomeclan, 1-(3,5-dichlorophenyl)-3-methoxymethyl-pyrrolidine-2,5-dione], in series [4], the solubility in water entry is “insoluble in water”. The “activity on addition of cyclodextrin (in words)” value in series [5] is listed as “significantly increased”.
As to `CCCCNC(=O)n1c(NC(=O)OC)nc2ccccc21` [benomyl, 1-butylcarbamoyl-benzimidazole-2-methyl-carbamate], the “decomposition when dissolved in water” value in series [4] (to methyl-benzimidazole carbamate) was “rapidly decomposes”. The solubility in water entry in series [4] is recorded as “poorly soluble in water”. The solubility thermodynamic at 10 min was 2 µg/mL (≈ 6.89 µM) in series [6] (10 minutes, shaking in water at 25° C., read-out: Dissolved benomyl); 2 µg/mL in series [7] (setting [8]); 3.5 µg/mL in series [7] (setting [9]). Also, the solubility thermodynamic at 20 min in series [6] (20 minutes, shaking in water at 25° C., read-out: Dissolved benomyl) was 5 µg/mL (≈ 17.2 µM); in series [7] (setting [10]), 3 µg/mL; in series [7] (setting [11]), 4 µg/mL. The solubility thermodynamic at 40 min is 6 µg/mL (≈ 20.7 µM) in series [6] (40 minutes, shaking in water at 25° C., read-out: Dissolved benomyl); 4.5 µg/mL in series [7] (setting [12]); 6 µg/mL in series [7] (setting [13]). Also, the solubility thermodynamic at 80 min was determined as 7 µg/mL (≈ 24.1 µM) in series [6] (80 minutes, shaking in water at 25° C., read-out: Dissolved benomyl); 5 µg/mL in series [7] (setting [14]); 8 µg/mL in series [7] (setting [15]). Moreover, the solubility thermodynamic at 2 h in series [6] (120 minutes, shaking in water at 25° C., read-out: Dissolved benomyl) was 8 µg/mL (≈ 27.6 µM); in series [7] (setting [16]), 5 µg/mL; in series [7] (setting [17]), 9.5 µg/mL. Besides, the solubility thermodynamic at 160 min in series [6] (160 minutes, shaking in water at 25° C., read-out: Dissolved benomyl) was determined as 9 µg/mL (≈ 31 µM). For the same molecule, in series [6] (on addition of cyclodextrin, water 25° C.), the “further increase of the solubility caused by cyclodextrin” value is 1.5-2 -fold. Besides, the “Amount of dissolved benomyl, %” value in series [7] (setting [8]) was 0.2%; in series [7] (setting [9]), 0.07%; in series [7] (setting [10]), 0.3%; in series [7] (setting [11]), 0.08%; in series [7] (setting [12]), 0.45%; in series [7] (setting [13]), 0.12%. The “Amount of dissolved benomyl, %” value in series [7] (setting [14]) was determined as 0.5%; in series [7] (setting [15]), 0.16%; in series [7] (setting [16]), 0.5%; in series [7] (setting [17]) it was 0.19%.
Take `COP(=S)(OC)Oc1ccc([N+](=O)[O-])cc1` [Methyl-parathion, 0,0-dimethyl-0-4-nitrophenyl-phosphorothioate]: the “stability against light and oxygen” value in series [2] (cyclodextrin complexes) is “increase the stability against light and oxygen to a considerable extent”.
In the case of `COC(=O)Nc1nc2ccccc2[nH]1` [methyl-benzimidazole carbamate, 2-carbomethoxyamino-benzimidazole], the solubility in water result in series [4] was “still less soluble in water”.
`CCN(CC)C(=O)SCc1ccc(Cl)cc1` [bentiocarb, S-4-chlorobenzyl-diethylthio carbamate]: the “volatility of the active ingredient” value in series [2] is given as “significantly decreased”. In series [3], the “duration of pesticide activity” value is listed as “remains sufficient for a longer period of time”.
As to `O=P(O)(O)CCCl`, the “ethylene release on contacting with plant tissue” value in series [3] (complex with cyclodextrin) was “long-lasting process”.
